Test results taken from PubChem BioAssay (NCI).
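Five compound concentrations were applied to cells in 96-well plates for 48 hours; endpoints were derived by simple linear interpolation of the resulting dose-response curve. The concentration for 50% growth inhibition is given as GI50. TGI marks complete inhibition of growth.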

Assays:
Test in all cases: NCI-60 cell line screen, 48 h
786-0 renal = system: 786-0 renal
A498 renal = system: A498 renal
A549 NSCLC = system: A549 NSCLC
ACHN renal = system: ACHN renal
BT-549 breast = system: BT-549 breast
CCRF-CEM leukemia = system: CCRF-CEM leukemia
COLO 205 colon = system: COLO 205 colon
DU-145 prostate = system: DU-145 prostate
HCC-2998 colon = system: HCC-2998 colon
HCT-116 colon = system: HCT-116 colon
HCT-15 colon = system: HCT-15 colon
HL-60(TB) leukemia = system: HL-60(TB) leukemia
HOP-62 NSCLC = system: HOP-62 NSCLC
HOP-92 NSCLC = system: HOP-92 NSCLC
HS 578T breast = system: HS 578T breast
HT29 colon = system: HT29 colon
IGROV1 ovarian = system: IGROV1 ovarian
K-562 leukemia = system: K-562 leukemia
KM12 colon = system: KM12 colon
LOX IMVI melanoma = system: LOX IMVI melanoma
M14 melanoma = system: M14 melanoma
MALME-3M melanoma = system: MALME-3M melanoma
MCF7 breast = system: MCF7 breast
MDA-MB-231 breast = system: MDA-MB-231 breast
MDA-MB-435 = system: MDA-MB-435
MOLT-4 leukemia = system: MOLT-4 leukemia
NCI-H226 lung = system: NCI-H226 lung
NCI-H23 lung = system: NCI-H23 lung
NCI-H460 lung = system: NCI-H460 lung
NCI-H522 lung = system: NCI-H522 lung
NCI/ADR-RES ovarian = system: NCI/ADR-RES ovarian
OVCAR-3 ovarian = system: OVCAR-3 ovarian
OVCAR-4 ovarian = system: OVCAR-4 ovarian
OVCAR-5 ovarian = system: OVCAR-5 ovarian
OVCAR-8 ovarian = system: OVCAR-8 ovarian
PC-3 prostate = system: PC-3 prostate
RPMI-8226 leukemia = system: RPMI-8226 leukemia
RXF 393 renal = system: RXF 393 renal
SF-268 CNS = system: SF-268 CNS
SF-295 CNS = system: SF-295 CNS
SF-539 CNS = system: SF-539 CNS
SK-MEL-2 melanoma = system: SK-MEL-2 melanoma
SK-MEL-28 melanoma = system: SK-MEL-28 melanoma
SK-MEL-5 melanoma = system: SK-MEL-5 melanoma
SK-OV-3 ovarian = system: SK-OV-3 ovarian
SN12C renal = system: SN12C renal
SNB-19 CNS = system: SNB-19 CNS
SNB-75 CNS = system: SNB-75 CNS
SR leukemia = system: SR leukemia
SW-620 colon = system: SW-620 colon
T-47D breast = system: T-47D breast
TK-10 renal = system: TK-10 renal
U251 CNS = system: U251 CNS
UACC-257 melanoma = system: UACC-257 melanoma
UACC-62 melanoma = system: UACC-62 melanoma
UO-31 renal = system: UO-31 renal

COc1ccc(-c2cnc3ccnn3c2-c2cc(OC)c(OC)c(OC)c2)cc1
GI50 (786-0 renal): 4.31 µM | TGI (786-0 renal): > 100 µM | GI50 (A498 renal): 0.293 µM | TGI (A498 renal): 4.47 µM | GI50 (A549 NSCLC): 3.85 µM | TGI (A549 NSCLC): > 100 µM | GI50 (ACHN renal): 6.19 µM | TGI (ACHN renal): > 100 µM | GI50 (BT-549 breast): 12.2 µM | TGI (BT-549 breast): 95.4 µM | GI50 (CCRF-CEM leukemia): 3.52 µM | TGI (CCRF-CEM leukemia): > 100 µM | GI50 (COLO 205 colon): 2.1 µM | TGI (COLO 205 colon): 5.51 µM | GI50 (DU-145 prostate): 4.23 µM | TGI (DU-145 prostate): > 100 µM | GI50 (HCC-2998 colon): 3.79 µM | TGI (HCC-2998 colon): > 100 µM | GI50 (HCT-116 colon): 2.97 µM | TGI (HCT-116 colon): > 100 µM | GI50 (HCT-15 colon): 2.12 µM | TGI (HCT-15 colon): > 100 µM | GI50 (HL-60(TB) leukemia): 2.3 µM | TGI (HL-60(TB) leukemia): 7.16 µM | GI50 (HOP-62 NSCLC): 7.49 µM | TGI (HOP-62 NSCLC): > 100 µM | GI50 (HOP-92 NSCLC): > 100 µM | TGI (HOP-92 NSCLC): > 100 µM | GI50 (HS 578T breast): 2.37 µM | TGI (HS 578T breast): > 100 µM | GI50 (HT29 colon): 3.01 µM | TGI (HT29 colon): > 100 µM | GI50 (IGROV1 ovarian): 5.25 µM | TGI (IGROV1 ovarian): > 100 µM | GI50 (K-562 leukemia): 0.706 µM | TGI (K-562 leukemia): > 100 µM | GI50 (KM12 colon): 1.67 µM | TGI (KM12 colon): > 100 µM | GI50 (LOX IMVI melanoma): 5.96 µM | TGI (LOX IMVI melanoma): > 100 µM | GI50 (M14 melanoma): 2.65 µM | TGI (M14 melanoma): 35.5 µM | GI50 (MALME-3M melanoma): 5.41 µM | TGI (MALME-3M melanoma): > 100 µM | GI50 (MCF7 breast): 3.51 µM | TGI (MCF7 breast): > 100 µM | GI50 (MDA-MB-231 breast): 4.3 µM | TGI (MDA-MB-231 breast): 65.7 µM | GI50 (MDA-MB-435): 0.282 µM | TGI (MDA-MB-435): 0.976 µM | GI50 (MOLT-4 leukemia): 4.62 µM | TGI (MOLT-4 leukemia): > 100 µM | GI50 (NCI-H226 lung): 8.13 µM | TGI (NCI-H226 lung): > 100 µM | GI50 (NCI-H23 lung): 8.29 µM | TGI (NCI-H23 lung): > 100 µM | GI50 (NCI-H460 lung): 3.39 µM | TGI (NCI-H460 lung): > 100 µM | GI50 (NCI-H522 lung): 0.857 µM | TGI (NCI-H522 lung): > 100 µM | GI50 (NCI/ADR-RES ovarian): 2.89 µM | TGI (NCI/ADR-RES ovarian): > 100 µM | GI50 (OVCAR-3 ovarian): 2.51 µM | TGI (OVCAR-3 ovarian): 7.91 µM | GI50 (OVCAR-4 ovarian): 9.69 µM | TGI (OVCAR-4 ovarian): > 100 µM | GI50 (OVCAR-5 ovarian): 4.42 µM | TGI (OVCAR-5 ovarian): > 100 µM | GI50 (OVCAR-8 ovarian): 7.25 µM | TGI (OVCAR-8 ovarian): > 100 µM | GI50 (PC-3 prostate): 2 µM | TGI (PC-3 prostate): > 100 µM | GI50 (RPMI-8226 leukemia): 4.14 µM | TGI (RPMI-8226 leukemia): > 100 µM | GI50 (RXF 393 renal): 2.6 µM | TGI (RXF 393 renal): > 100 µM | GI50 (SF-268 CNS): 5.86 µM | TGI (SF-268 CNS): > 100 µM | GI50 (SF-295 CNS): 1.93 µM | TGI (SF-295 CNS): 20 µM | GI50 (SF-539 CNS): 1.99 µM | TGI (SF-539 CNS): 6.11 µM | GI50 (SK-MEL-2 melanoma): 3.94 µM | TGI (SK-MEL-2 melanoma): > 100 µM | GI50 (SK-MEL-28 melanoma): 10 µM | TGI (SK-MEL-28 melanoma): > 100 µM | GI50 (SK-MEL-5 melanoma): 4.53 µM | TGI (SK-MEL-5 melanoma): > 100 µM | GI50 (SK-OV-3 ovarian): 4.63 µM | TGI (SK-OV-3 ovarian): > 100 µM | GI50 (SN12C renal): 5.4 µM | TGI (SN12C renal): > 100 µM | GI50 (SNB-19 CNS): 5.16 µM | TGI (SNB-19 CNS): > 100 µM | GI50 (SNB-75 CNS): 2.2 µM | TGI (SNB-75 CNS): 62.7 µM | GI50 (SR leukemia): 1.66 µM | TGI (SR leukemia): > 100 µM | GI50 (SW-620 colon): 2.36 µM | TGI (SW-620 colon): > 100 µM | GI50 (T-47D breast): > 100 µM | TGI (T-47D breast): > 100 µM | GI50 (TK-10 renal): 27.3 µM | TGI (TK-10 renal): > 100 µM | GI50 (U251 CNS): 4.64 µM | TGI (U251 CNS): > 100 µM | GI50 (UACC-257 melanoma): 91.6 µM | TGI (UACC-257 melanoma): > 100 µM | GI50 (UACC-62 melanoma): 2.15 µM | TGI (UACC-62 melanoma): > 100 µM | GI50 (UO-31 renal): 4.25 µM | TGI (UO-31 renal): > 100 µM
